Like-named read-outs stand apart in the source and are kept apart here.
Legend:
Assay in all cases: Pemetrexed cytotoxicity test upon suppression of expression of MYT1
Format in all cases: cell-based
[1] = test system: EKVX; settings: Homo sapiens, EKVX (RB1 wild-type), 7 days
Experimental: (§1) Thereafter, the plates were shaken to transfect each siRNA at a final concentration of 10 nM.
(§2) The −Log 2 value of fold change of IC50 and the maximum value of Bliss score, which are indexes of the combination effect, were calculated by comparing with the actually obtained cell survival curve, and described in Table 6 (see Non Patent Literature 9).

[2] = test system: NCI-H2122; settings: Homo sapiens, NCI-H2122 (RB1 wild-type), 7 days
Experimental: as §1, §2

[3] = test system: NCI-H596; settings: Homo sapiens, NCI-H596 (RB1 mutant), 7 days
Experimental: as §1, §2

[4] = test system: NCI-H2110; settings: NCI-H2110 (RB1 mutant), 7 days
Experimental: as §1, §2

[5] = test system: NCI-H1666; settings: Homo sapiens, NCI-H1666 (RB1 wild-type), 7 days
Experimental: as §1, §2

[6] = test system: LU65; settings: Homo sapiens, LU65 (RB1 mutant), 7 days
Experimental: as §1, §2

[7] = test system: HOP-62; settings: Homo sapiens, HOP-62 (RB1 wild-type), 7 days
Experimental: as §1, §2

[8] = test system: ChaGo-K-1; settings: Homo sapiens, ChaGo-K-1 (RB1 mutant), 7 days
Experimental: as §1, §2

[9] = test system: NCI-H292; settings: Homo sapiens, NCI-H292 (RB1 wild-type), 7 days
Experimental: as §1, §2

[10] = test system: NCI-H1993; settings: Homo sapiens, NCI-H1993 (RB1 wild-type), 7 days
Experimental: as §1, §2

[11] = test system: NCI-H322; settings: NCI-H322 (RB1 wild-type), 7 days
Experimental: as §1, §2

[12] = test system: NCI-H358; settings: Homo sapiens, NCI-H358 (RB1 wild-type), 7 days
Experimental: as §1, §2

[13] = test system: NCI-H460; settings: Homo sapiens, NCI-H460 (RB1 wild-type), 7 days
Experimental: as §1, §2

[14] = test system: ABC-1; settings: Homo sapiens, ABC-1 (RB1 wild-type), 7 days
Experimental: as §1, §2

[15] = test system: PC-9; settings: Homo sapiens, PC-9 (RB1 wild-type), 7 days
Experimental: as §1, §2

[16] = test system: NCI-H661; settings: Homo sapiens, NCI-H661 (RB1 wild-type), 7 days
Experimental: as §1, §2

[17] = test system: NCI-H1155; settings: Homo sapiens, NCI-H1155 (RB1 mutant), 7 days
Experimental: as §1, §2

[18] = test system: A549; settings: Homo sapiens, A549 (RB1 wild-type), 7 days
Experimental: as §1, §2

[19] = read-out: IC50 of pemetrexed, MYT1 #16, MYT1 siRNA #16 10 nM
[20] = read-out: IC50 of pemetrexed, MYT1 #18, MYT1 siRNA #18 10 nM
[21] = read-out: IC50 of pemetrexed, NT, negative control siRNA 10 nM

Nc1nc2[nH]cc(CCc3ccc(C(=O)N[C@@H](CCC(=O)O)C(=O)O)cc3)c2c(=O)[nH]1 [pemetrexed]
IC50 [1, 19]: 166 nM | IC50 [1, 20]: 263 nM | IC50 [1, 21]: 404 nM | IC50 [2, 19]: 13.5 nM | IC50 [2, 20]: 47.2 nM | IC50 [2, 21]: 159 nM | IC50 [3, 19]: 7.01 nM | IC50 [3, 20]: 21 nM | IC50 [3, 21]: 385 nM | IC50 [4, 19]: 10.5 nM | IC50 [4, 20]: 41.4 nM | IC50 [4, 21]: 227 nM | IC50 [5, 19]: 473 nM | IC50 [5, 20]: 291 nM | IC50 [5, 21]: 619 nM | IC50 ([6]; Lu-65, read-out: IC50 of pemetrexed, MYT1 #16, MYT1 siRNA #16 10 nM): 134 nM | IC50 ([6]; Lu-65, read-out: IC50 of pemetrexed, MYT1 #18, MYT1 siRNA #18 10 nM): 140 nM | IC50 ([6]; Lu-65, read-out: IC50 of pemetrexed, NT, negative control siRNA 10 nM): 1070 nM | IC50 [7, 19]: 98.1 nM | IC50 [7, 20]: 91.9 nM | IC50 [7, 21]: 175 nM | IC50 [8, 19]: 133 nM | IC50 [8, 20]: 192 nM | IC50 [8, 21]: 914 nM | IC50 [9, 19]: 71.1 nM | IC50 [9, 20]: 187 nM | IC50 [9, 21]: 391 nM | IC50 [10, 19]: 24.6 nM | IC50 [10, 20]: 106 nM | IC50 [10, 21]: 181 nM | IC50 [11, 19]: 1030 nM | IC50 [11, 20]: 805 nM | IC50 [11, 21]: 1600 nM | IC50 [12, 19]: 531 nM | IC50 [12, 20]: 333 nM | IC50 [12, 21]: 986 nM | IC50 [13, 19]: 465 nM | IC50 [13, 20]: 563 nM | IC50 [13, 21]: 667 nM | IC50 [14, 19]: 363 nM | IC50 [14, 20]: 313 nM | IC50 [14, 21]: 973 nM | IC50 [15, 19]: 32.9 nM | IC50 [15, 20]: 77.7 nM | IC50 [15, 21]: 145 nM | IC50 [16, 19]: 45.7 nM | IC50 [16, 20]: 129 nM | IC50 [16, 21]: 315 nM | IC50 [17, 19]: 673 nM | IC50 [17, 20]: 1650 nM | IC50 [17, 21]: 9840 nM | IC50 [18, 19]: 1530 nM | IC50 [18, 20]: 1950 nM | IC50 [18, 21]: 2850 nM

From patent US20240293379A1, “THERAPEUTIC AGENT FOR CANCER OF PATIENT WITH DECREASE IN RB1 FUNCTION USING MYT1 INHIBITOR AND CHEMOTHERAPEUTIC AGENT IN COMBINATION, AND TREATMENT METHOD THEREOF” (Chugai Seiyaku Kabushiki Kaisha, priority 2022, published 2024)
